Data reported in ChEMBL document CHEMBL1201862, “PubChem BioAssay data set” (2004).
Activity calls are given as the source filed them. For most assays here, no stated cut-off is given here; in the data, actives have a measured EC50 and inactives only a lower limit.

Tests used:
Genome polyprotein = Genome polyprotein (dengue virus type 2, UniProt P29990); test: Dengue-2 NS5 methyltransferase inhibitors, primary screen, biochemical, confirmation dose response (AID 588689); assay type: functional
[1] = molecular target: FAD-linked sulfhydryl oxidase ALR (Homo sapiens, UniProt P55789); test: inhibitors of human ALR sulfhydryl oxidase, dose response, biochemical, H2O2 detection, luminescence, cherry-pick (AID 493248)
Sequence of FAD-linked sulfhydryl oxidase ALR (P55789 whole entry): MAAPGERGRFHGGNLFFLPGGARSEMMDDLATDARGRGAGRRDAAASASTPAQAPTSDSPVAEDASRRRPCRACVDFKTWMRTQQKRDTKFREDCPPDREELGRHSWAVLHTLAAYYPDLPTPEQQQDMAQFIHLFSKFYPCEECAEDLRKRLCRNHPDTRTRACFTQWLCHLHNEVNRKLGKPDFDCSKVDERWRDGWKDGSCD

cells [2] = assay type: functional
[3] = cytotoxicity toward NIH3T3 fibroblasts, dose response, counter-screen, cell-based, ATP luminescence, mouse fibroblasts (AID 2010); assay type: functional;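 further: cells exposed to compound for about 90 hours before reading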
[4] = inhibitors of intracellular T. cruzi replication, confirmation, NIH3T3 host cells, beta-gal luminescence (AID 2044); assay type: functional, cell-based;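 further: intracellular parasites grown in NIH/3T3 mouse fibroblasts as host cells; luminescent beta-galactosidase reporter signal from transgenic T. cruzi replicating inside host cells; inhibitors lower the luminescence signal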
[5] = molecular target: T1, Heat shock factor protein 1 (Mus musculus, UniProt P38532); test: HSF1 potentiators in luciferase reporter cells, confirmation, cell-based, NIH3T3, luminescence, dose retest (AID 435004); assay type: functional;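 further: stress induced by proteasome inhibitor MG132 added 30 min after compound; luciferase reporter driven by HSF1 response element in NIH3T3 cells; actives raise luminescence as potentiators of the MG132 stress response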
T1 sequence (P38532 whole entry): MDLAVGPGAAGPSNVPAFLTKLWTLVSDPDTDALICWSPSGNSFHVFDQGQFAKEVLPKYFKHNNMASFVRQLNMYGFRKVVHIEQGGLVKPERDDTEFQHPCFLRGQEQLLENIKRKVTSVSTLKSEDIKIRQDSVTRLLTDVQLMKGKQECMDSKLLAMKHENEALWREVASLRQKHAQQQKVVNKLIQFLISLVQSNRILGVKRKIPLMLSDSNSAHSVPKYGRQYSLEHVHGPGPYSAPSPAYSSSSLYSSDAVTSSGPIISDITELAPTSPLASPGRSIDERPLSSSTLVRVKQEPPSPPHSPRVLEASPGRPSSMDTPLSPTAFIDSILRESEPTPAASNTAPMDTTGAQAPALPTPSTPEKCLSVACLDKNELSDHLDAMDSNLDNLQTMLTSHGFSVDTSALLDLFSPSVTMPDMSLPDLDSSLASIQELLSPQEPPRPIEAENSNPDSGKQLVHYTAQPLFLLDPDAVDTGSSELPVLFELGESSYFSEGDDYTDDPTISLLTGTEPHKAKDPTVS

BJ [6] = test: cytotoxicity toward BJ-TERT-LT-ST fibroblasts, dose response, cell-based, RAS-independent, luminescence (AID 1935); assay type: functional; conditions: Homo sapiens;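 further: BJ fibroblasts immortalized with TERT plus LT and ST oncogenes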
BJ [7] = test: cells; assay type: functional, cell-based; conditions: Homo sapiens
BJ [8] = test: cytotoxicity toward BJ-TERT fibroblasts, dose response, cell-based, RAS-independent, luminescence (AID 1933); assay type: functional; conditions: Homo sapiens
[9] = cytotoxicity toward DRD oncogenic fibroblasts, dose response, cell-based, non-viral oncogenic, luminescence (AID 1934); assay type: functional; conditions: Homo sapiens
[10] = Luminescence Cell-Based Dose Confirmation HTS to Identify Inhibitors of Platelet Dense Granule Release. [Related pubchem assays: 1663 (Primary HTS), 1678 (Summary of Project)]; assay type: functional
[11] = molecular target: Luciferin 4-monooxygenase (Photinus pyralis, UniProt P08659); test: firefly luciferase enzyme inhibitors, dose response, biochemical, luminescence (AID 1891)
Sequence of Luciferin 4-monooxygenase (P08659 whole entry): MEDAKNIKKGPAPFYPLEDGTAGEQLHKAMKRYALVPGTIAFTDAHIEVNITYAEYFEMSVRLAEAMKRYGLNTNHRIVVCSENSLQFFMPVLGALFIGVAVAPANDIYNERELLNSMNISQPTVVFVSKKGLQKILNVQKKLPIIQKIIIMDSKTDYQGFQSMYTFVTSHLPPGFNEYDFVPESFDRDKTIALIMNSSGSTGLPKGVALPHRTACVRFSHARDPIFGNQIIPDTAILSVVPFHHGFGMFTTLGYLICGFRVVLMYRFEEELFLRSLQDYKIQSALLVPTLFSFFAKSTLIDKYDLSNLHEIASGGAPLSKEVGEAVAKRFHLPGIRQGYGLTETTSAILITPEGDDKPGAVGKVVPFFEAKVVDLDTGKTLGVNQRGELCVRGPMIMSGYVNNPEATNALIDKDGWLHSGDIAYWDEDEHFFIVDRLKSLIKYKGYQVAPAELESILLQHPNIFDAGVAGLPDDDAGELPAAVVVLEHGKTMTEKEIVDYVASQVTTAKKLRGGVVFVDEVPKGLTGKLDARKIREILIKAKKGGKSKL

cells [12] = assay type: functional, cell-based
cells [13] = assay type: functional, cell-based; remark: listed apart in the source
Cytochrome P450 2C9 = Cytochrome P450 2C9 (Homo sapiens, UniProt P11712)
Sequence of Cytochrome P450 2C9 (P11712 whole entry): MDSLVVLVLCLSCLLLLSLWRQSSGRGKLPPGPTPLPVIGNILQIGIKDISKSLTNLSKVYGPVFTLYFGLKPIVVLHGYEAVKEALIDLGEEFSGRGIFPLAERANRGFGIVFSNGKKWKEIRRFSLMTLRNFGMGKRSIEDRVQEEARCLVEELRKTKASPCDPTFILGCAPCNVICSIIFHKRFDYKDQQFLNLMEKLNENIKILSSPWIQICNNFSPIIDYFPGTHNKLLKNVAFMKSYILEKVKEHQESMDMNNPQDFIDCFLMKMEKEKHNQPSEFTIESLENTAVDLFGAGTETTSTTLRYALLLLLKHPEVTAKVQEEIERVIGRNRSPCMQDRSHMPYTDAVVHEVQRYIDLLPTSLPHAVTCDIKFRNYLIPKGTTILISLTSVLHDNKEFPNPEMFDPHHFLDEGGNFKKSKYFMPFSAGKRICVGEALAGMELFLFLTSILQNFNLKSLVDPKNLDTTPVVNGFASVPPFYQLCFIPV

[14] = HEp-2 cell cytotoxicity, dose response, cytotoxicity control for RSV inhibitor project, HTS (AID 2410); assay type: functional; conditions: human respiratory syncytial virus
[15] = molecular target: T1, Heat shock factor protein 1; test: inhibition of MG132-induced HSE-luciferase signal, confirmation, cell-based, NIH3T3, luminescence, dose retest (AID 2382); assay type: functional;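 further: NIH3T3 fibroblasts with HSF1-driven luciferase reporter stressed by proteasome inhibitor MG132; luminescence from HSF1-driven luciferase expression after 8 hours of MG132 stress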
[16] = inhibitors of clade B AD8 Env fusion, dose response, cell-based, cherry-pick (AID 652062); assay type: functional;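 further: luciferase signal from cell-cell fusion driven by HIV-1 clade B AD8 Env; potency is for inhibitors of fusion seen as a drop in luminescence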
[17] = ZM109 Env clade C HIV-1 fusion inhibitors, dose response, HeLa effector, CEM target cells, luciferase, cherry-pick (AID 652058); assay type: functional, cell-based
Paired box protein Pax-8 = Paired box protein Pax-8 (Homo sapiens, UniProt Q06710); test: inhibitors of PAX8-driven TPO luciferase reporter, dose response, RMG-I cells, cherry-pick (AID 687027); assay type: functional, cell-based;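 further: luciferase reporter driven by Pax8 target thyroperoxidase promoter measured by SteadyGlo luminescence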
Sequence of Paired box protein Pax-8 (Q06710 whole entry, the tested form may be a part): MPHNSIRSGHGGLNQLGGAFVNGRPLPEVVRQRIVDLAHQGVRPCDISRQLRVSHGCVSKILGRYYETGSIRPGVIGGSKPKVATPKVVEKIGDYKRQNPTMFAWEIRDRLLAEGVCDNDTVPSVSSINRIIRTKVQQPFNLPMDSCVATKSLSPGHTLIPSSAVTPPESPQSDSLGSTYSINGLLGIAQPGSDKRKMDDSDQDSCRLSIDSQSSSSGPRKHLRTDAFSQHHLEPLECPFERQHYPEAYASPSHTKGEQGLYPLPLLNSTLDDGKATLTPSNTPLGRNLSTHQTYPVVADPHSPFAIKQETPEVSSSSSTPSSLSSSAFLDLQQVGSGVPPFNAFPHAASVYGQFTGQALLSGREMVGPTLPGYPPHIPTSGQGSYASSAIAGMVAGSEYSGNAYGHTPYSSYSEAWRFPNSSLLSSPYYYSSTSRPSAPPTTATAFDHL

[18] = inhibitors of HIV Env-driven cell fusion, dose response, cherry-pick (AID 652057); assay type: functional, cell-based
[19] = molecular target: T2, Rac GTPase-activating protein 1 (Homo sapiens, UniProt Q9H0H5); test: MgcRacGAP GTPase-activating activity inhibitors, confirmation, biochemical, ADP Hunter fluorescence, primary and confirmatory (AID 624330); assay type: functional
T2 sequence (Q9H0H5 whole entry): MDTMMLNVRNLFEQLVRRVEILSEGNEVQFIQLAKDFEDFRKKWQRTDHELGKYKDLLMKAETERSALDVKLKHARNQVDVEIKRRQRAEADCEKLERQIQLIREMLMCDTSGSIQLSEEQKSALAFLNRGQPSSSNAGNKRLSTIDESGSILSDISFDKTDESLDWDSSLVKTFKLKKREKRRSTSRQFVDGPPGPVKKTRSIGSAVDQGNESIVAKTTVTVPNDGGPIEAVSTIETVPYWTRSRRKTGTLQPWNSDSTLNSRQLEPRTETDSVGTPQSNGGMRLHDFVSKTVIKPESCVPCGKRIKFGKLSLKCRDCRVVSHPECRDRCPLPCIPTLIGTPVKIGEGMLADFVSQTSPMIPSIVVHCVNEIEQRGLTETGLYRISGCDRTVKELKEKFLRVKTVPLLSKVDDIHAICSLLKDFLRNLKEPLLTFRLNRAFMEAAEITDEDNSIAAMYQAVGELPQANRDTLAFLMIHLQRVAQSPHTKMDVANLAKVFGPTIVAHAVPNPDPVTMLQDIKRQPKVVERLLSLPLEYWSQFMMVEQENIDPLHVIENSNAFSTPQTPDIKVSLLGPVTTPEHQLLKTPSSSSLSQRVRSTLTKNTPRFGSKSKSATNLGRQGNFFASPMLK

Cytochrome P450 1A2 = molecular target: T3, Cytochrome P450 1A2 (Homo sapiens, UniProt P05177);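 further: PubChem cytochrome P450 panel assay, CYP1A2 panel member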
T3 sequence (P05177 whole entry): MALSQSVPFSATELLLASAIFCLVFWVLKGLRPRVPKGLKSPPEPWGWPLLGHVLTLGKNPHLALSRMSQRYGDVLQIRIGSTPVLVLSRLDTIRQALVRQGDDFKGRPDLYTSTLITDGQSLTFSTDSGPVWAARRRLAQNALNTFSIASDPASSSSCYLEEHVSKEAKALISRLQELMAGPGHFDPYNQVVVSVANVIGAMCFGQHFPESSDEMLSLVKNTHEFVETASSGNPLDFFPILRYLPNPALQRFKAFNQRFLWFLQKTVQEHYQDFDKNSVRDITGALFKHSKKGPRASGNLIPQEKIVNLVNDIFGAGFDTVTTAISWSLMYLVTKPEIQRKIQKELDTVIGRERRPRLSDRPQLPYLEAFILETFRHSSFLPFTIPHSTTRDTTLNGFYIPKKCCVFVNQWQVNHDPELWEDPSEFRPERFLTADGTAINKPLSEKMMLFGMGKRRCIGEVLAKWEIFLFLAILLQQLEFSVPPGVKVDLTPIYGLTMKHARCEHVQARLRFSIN

Sequence of Genome polyprotein (P29990 2492-3391 limits assumed): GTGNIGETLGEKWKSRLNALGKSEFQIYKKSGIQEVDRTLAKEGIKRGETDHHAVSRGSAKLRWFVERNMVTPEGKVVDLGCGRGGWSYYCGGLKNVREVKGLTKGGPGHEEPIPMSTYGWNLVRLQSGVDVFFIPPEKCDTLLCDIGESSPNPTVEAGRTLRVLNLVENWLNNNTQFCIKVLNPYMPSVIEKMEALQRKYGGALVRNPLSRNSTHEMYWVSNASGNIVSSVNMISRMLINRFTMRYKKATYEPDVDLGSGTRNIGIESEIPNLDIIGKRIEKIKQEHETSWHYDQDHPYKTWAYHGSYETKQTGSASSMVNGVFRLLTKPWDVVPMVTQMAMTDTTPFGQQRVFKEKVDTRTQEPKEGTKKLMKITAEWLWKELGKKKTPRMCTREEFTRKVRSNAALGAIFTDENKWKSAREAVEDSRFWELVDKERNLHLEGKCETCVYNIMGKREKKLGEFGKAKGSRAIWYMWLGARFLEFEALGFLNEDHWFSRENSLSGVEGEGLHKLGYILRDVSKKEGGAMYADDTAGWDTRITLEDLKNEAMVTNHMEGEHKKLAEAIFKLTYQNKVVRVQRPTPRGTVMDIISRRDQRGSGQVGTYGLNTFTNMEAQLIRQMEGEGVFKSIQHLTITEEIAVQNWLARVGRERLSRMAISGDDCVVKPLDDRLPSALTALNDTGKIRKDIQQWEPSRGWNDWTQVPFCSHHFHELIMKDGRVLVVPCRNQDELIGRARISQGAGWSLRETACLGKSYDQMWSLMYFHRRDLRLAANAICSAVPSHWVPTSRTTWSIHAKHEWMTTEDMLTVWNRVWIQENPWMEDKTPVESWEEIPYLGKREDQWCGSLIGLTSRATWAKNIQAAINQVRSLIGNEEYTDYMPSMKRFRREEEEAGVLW

## O=C(O)c1ccccc1-c1ccccc1C(=O)Nc1ccc2c(c1)C(=O)c1ccccc1-2
Genome polyprotein
  IC50: 58.9 µM (active)

## C[C@H](N)CN1CCc2ccc(Br)cc21
[1]
  AC50: 0.84 µM (active)

## Cc1ccc(OCC(=O)OCc2c(C)noc2C)cc1C
Cells [2]
  IC50: 22.7 µM (active)

## CC(C)(C)NCC1(CO)SC(N)=NC1=O (stereo not drawn)
[3]
  EC50: > 30 µM (not active)
[4]
  EC50: 3.82 µM (active)
Cells [2]
  IC50: 16.4 µM (active)

## CCCN(CCC)C(S)=NC1CC2C=CC1C2 (stereo not drawn)
[5]
  EC50: > 260 µM (inactive)

## O=C(Oc1ccccc1Cl)c1ccc2c(=O)n3c(nc2c1)CCC3
Cells [2]
  IC50: 5.48 µM (active)

## O=C(CSc1nnc(-c2c[nH]c3ccccc23)n1-c1ccc(F)cc1)NCc1ccco1
[5]
  EC50: 40.4 µM (active)

## COc1ccc(NC(=O)C(=O)NCCC2CCCCN2S(=O)(=O)c2ccccc2)cc1 (stereo not drawn)
BJ [6]
  EC50: 23.4 µM (active)
BJ [7]
  EC50: 19.8 µM (active)
BJ [8]
  EC50: 22.8 µM (active)
[9]
  EC50: 13.5 µM (inconclusive)

## Nc1cccc(C(=O)Nc2ccc3[nH]c(-c4cccnc4)nc3c2)c1
[1]
  AC50: 1.07 µM (active)

## CC(=O)N1c2ccc(S(=O)(=O)N3CCCCC3)cc2CC1C(=O)Nc1ccccc1C(F)(F)F (stereo not drawn)
[10]
  EC50: > 112 µM (not active)
[11]
  EC50: > 112 µM (not active)

## CCOC(=O)CC(=O)CSCC(=O)Nc1ccc(C)cc1
[5]
  EC50: > 260 µM (inactive)

## COc1ccccc1N(CC(=O)NC1CCCCC1)S(C)(=O)=O
Cells [12]
  EC50: > 350 µM (not active)
Cells [13]
  EC50: > 350 µM (not active)

## Cc1ccccc1CSc1nsc(N)n1
[5]
  EC50: > 260 µM (inactive)
Cytochrome P450 2C9
  AC50: 2 µM (inconclusive)

## Cc1sc2ncnc(SCC(=O)N3CCCC3)c2c1C
[10]
  EC50: > 112 µM (not active)
[11]
  EC50: > 112 µM (not active)

## O=C1C(=O)c2ccccc2C(O)=C1c1cccc([N+](=O)[O-])c1
Cells [12]
  EC50: > 350 µM (not active)
[14]
  CC50: 14.2 µM (active)
Cells [13]
  EC50: 56.5 µM (active)

## CCOC(=O)c1cc2nc(-c3ccco3)cc(C(F)(F)F)n2n1
[15]
  EC50: > 195 µM (not active)
[10]
  EC50: > 112 µM (not active)
[11]
  EC50: > 112 µM (not active)

## CCN(CC)c1ccc(CNCCc2ccccc2F)cc1
[1]
  AC50: 1.36 µM (active)

## COc1cccc(-c2cn3nc(C)c(C)nc3n2)c1
[10]
  EC50: 6.72 µM (active)
[11]
  EC50: 19.7 µM (active)

## O=C(Nc1cccc(Cl)c1)Nc1ccccc1C(=O)O
[10]
  EC50: 11.4 µM (active)
[11]
  EC50: 0.654 µM (active)

## O=C(CSC1CS(=O)(=O)c2cc([N+](=O)[O-])ccc21)NNC(=O)c1ccc(Cl)cc1 (stereo not drawn)
[5]
  EC50: > 260 µM (inactive)

## CCOC(=O)COc1c(-c2ccc(OC)cc2)oc2ccccc2c1=O
Cells [2]
  IC50: 5.55 µM (active)

## O=C(O)c1ccccc1OC(C(=O)Nc1cc(Cl)cc(Cl)c1)c1ccccc1 (stereo not drawn)
[5]
  EC50: > 260 µM (inactive)

## CCOC(=O)c1c(S(=O)(=O)NCc2ccc(C)o2)c(C)n(C)c1C
Cells [12]
  EC50: > 350 µM (not active)
Cells [13]
  EC50: > 350 µM (not active)

## CCCn1cnc2cc(NCc3ccccc3O)ccc21
[1]
  AC50: 3.92 µM (active)

## CCc1ccc(-n2c(S)nnc2Cc2ccccc2)cc1
[10]
  EC50: > 112 µM (not active)
[11]
  EC50: > 112 µM (not active)

## CN(CC(=O)Nc1ccccc1Cl)CC(=O)Nc1c(F)cccc1F
[5]
  EC50: > 260 µM (inactive)

## CCn1c(-c2cc(Br)ccc2O)n[nH]c1=S
[1]
  AC50: 4.27 µM (active)

## NC(=O)c1cc2cc(Br)ccc2o/c1=N\Cc1ccccc1
[5]
  EC50: > 260 µM (inactive)

## C[C@H](CO)N1C[C@H](C)[C@@H](CN(C)C(=O)NC2CCCCC2)Oc2c(cccc2N(C)C)C1=O
[16]
  AC50: 0.558 µM (active)
[17]
  AC50: 36.3 µM (active)

## COc1ccc(S(=O)(=O)Nc2ccc3c(c2)C(=O)N([C@H](C)CO)C[C@H](C)[C@@H](CN(C)Cc2ccc(C(F)(F)F)cc2)OCCCC[C@H](C)O3)cc1
Paired box protein Pax-8
  AC50: 18.9 µM (active)

## CN1C(=O)c2cc(NC(=O)c3cscn3)ccc2OC[C@@H]2O[C@H](CC(=O)NCc3ccc(Cl)c(Cl)c3)CC[C@H]21
[18]
  AC50: 21 µM (active)
[16]
  AC50: 40.6 µM (active)
[17]
  AC50: 6.62 µM (active)

## C[C@H]1CN([C@@H](C)CO)C(=O)Cc2cc(NC(=O)Nc3cccc4ccccc34)ccc2O[C@H]1CN(C)S(=O)(=O)c1ccc(F)cc1
[18]
  AC50: 3.46 µM (active)
[16]
  AC50: 6.07 µM (active)
[17]
  AC50: 7.77 µM (active)

## CC/C(C)=N/Nc1nc(-c2cc3cccc(OC)c3oc2=O)cs1
[1]
  AC50: 0.091 µM (active)

## CN(C)c1ccc(/C=N/Nc2nncc3ccccc23)cc1
[10]
  EC50: 2.37 µM (active)
[11]
  EC50: 1.11 µM (active)

## CCO/C(O)=C1\C(C)=Nc2ncnn2C1c1ccc2c(c1)OCO2 (stereo not drawn)
[5]
  EC50: > 260 µM (inactive)

## COc1cc(/C=N/NC(=O)CCNC(=O)c2ccccc2Cl)ccc1O
[1]
  AC50: 3.1 µM (active)
[19]
  IC50: 29 µM (active)

## CNc1c2c(nn1C)CCCC2 [TETRYDAMINE]
Cells [12]
  EC50: > 350 µM (not active)
Cytochrome P450 1A2
  AC50: 39.8 µM (inconclusive)
Cells [13]
  EC50: > 350 µM (not active)
